Laboratory results published in US20210238170A1, “5,5-Difluoro- and 5-Fluoro-5-Methyl-C-Glycoside Derivatives Useful As Dual SGLT1 / SGLT2 Modulators” (Janssen Pharmaceutica NV, priority 2018, published 2021).

Experiments:
human SGLT1 = target: T1, human SGLT1 (Homo sapiens, UniProt P13866); test: SGLT1 in vitro assay: Na-dependent 14C-AMG uptake in CHO-K1 cells stably expressing human SGLT1; type: cell-based; conditions: CHO-K1 cells stably expressing human SGLT1, 14C-AMG uptake; for inhibition at 0.3 µM: read-out: SGLT1 % Inh @ 0.3 μM; for IC50: compounds of formula (I) where R0 is fluoro
T1 construct: expressed in transfected cells
T1 sequence (P13866 1-664): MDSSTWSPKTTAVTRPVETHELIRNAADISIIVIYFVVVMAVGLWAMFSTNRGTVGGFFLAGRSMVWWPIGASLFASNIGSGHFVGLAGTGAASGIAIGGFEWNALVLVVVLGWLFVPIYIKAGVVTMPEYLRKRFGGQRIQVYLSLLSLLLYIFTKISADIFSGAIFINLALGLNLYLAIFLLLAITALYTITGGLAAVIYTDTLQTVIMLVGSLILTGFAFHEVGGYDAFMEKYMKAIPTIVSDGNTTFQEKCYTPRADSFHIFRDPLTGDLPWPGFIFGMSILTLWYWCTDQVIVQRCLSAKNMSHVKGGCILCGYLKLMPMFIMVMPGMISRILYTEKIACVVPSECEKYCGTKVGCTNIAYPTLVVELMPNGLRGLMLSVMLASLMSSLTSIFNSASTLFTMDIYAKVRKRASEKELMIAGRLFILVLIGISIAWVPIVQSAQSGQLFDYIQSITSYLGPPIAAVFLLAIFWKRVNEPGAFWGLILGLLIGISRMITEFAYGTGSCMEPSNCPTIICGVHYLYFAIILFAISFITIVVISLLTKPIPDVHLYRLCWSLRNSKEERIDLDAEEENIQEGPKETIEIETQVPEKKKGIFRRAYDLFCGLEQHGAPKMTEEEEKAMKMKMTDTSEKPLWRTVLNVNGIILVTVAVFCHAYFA
Method in brief: (§1)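 Sodium-dependent uptake of 14C-α-methyl-glucopyranoside ([…]) over 2 h at 37°C was counted by scintillation in stable human SGLT2- or SGLT1-CHO-K1 lines pretreated with 10 mM Na-butyrate. Compounds at 0.001–10 μM were preincubated for 10 min in pH 7.4 buffer with 137 mM NaCl; output is %-inhibition or IC50.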

db/db mice = test: SGLT inhibition evaluated in db/db mice: fed blood glucose AUC and 24-hr urine glucose excretion; type: in vivo, mouse; conditions: oral dose 10 mg/kg, mean ± SE, n = 8; for 24-hr Blood Glucose AUC vs Vehicle (%): fed
Experimental: Biological Example 3: In Vivo Assay
SGLT Inhibition Evaluated in db/db Mice
Based on fed blood glucose levels, db/db mice were allocated into either vehicle or test compound treated groups (n=8 in each group). After grouped, the mice were orally dosed with either vehicle or test compound at 0 and 10 mg/kg, in a volume of 10 ml/kg. The mice were then immediately transferred into mouse metabolic cages, after they were dosed. Fed blood glucose levels were determined at multiple timepoints after the animals were treated. Fed blood glucose AUC (area under the curve of blood glucose) was determined from the blood glucose levels measured at the timepoints.
Table 10 below, presents the measured efficacy of the test compound(s), expressed as a percentage (%) of blood glucose AUC vs that in vehicle group. The data is interpreted such that, the smaller the percentage of blood glucose AUC of compound vs vehicle, the greater efficacy of the test compound. Total urine glucose excretion (UGE) over the 24-hr period post treatment was calculated based on urine glucose concentrations and urine volumes at multiple timepoints. Urine glucose was measured using Olympus system with Genzyme diagnostics assay reagent.

human SGLT2 = target: T2, human SGLT2 (Homo sapiens, UniProt P31639); test: SGLT2 in vitro assay: Na-dependent 14C-AMG uptake in CHO-K1 cells stably expressing human SGLT2; type: cell-based; conditions: CHO-K1 cells stably expressing human SGLT2, 14C-AMG uptake; for inhibition at 0.3 µM: read-out: SGLT2 % Inh @ 0.3 μM; for IC50: compounds of formula (I) where R0 is fluoro
T2 construct: expressed in transfected cells
T2 sequence (P31639 1-672): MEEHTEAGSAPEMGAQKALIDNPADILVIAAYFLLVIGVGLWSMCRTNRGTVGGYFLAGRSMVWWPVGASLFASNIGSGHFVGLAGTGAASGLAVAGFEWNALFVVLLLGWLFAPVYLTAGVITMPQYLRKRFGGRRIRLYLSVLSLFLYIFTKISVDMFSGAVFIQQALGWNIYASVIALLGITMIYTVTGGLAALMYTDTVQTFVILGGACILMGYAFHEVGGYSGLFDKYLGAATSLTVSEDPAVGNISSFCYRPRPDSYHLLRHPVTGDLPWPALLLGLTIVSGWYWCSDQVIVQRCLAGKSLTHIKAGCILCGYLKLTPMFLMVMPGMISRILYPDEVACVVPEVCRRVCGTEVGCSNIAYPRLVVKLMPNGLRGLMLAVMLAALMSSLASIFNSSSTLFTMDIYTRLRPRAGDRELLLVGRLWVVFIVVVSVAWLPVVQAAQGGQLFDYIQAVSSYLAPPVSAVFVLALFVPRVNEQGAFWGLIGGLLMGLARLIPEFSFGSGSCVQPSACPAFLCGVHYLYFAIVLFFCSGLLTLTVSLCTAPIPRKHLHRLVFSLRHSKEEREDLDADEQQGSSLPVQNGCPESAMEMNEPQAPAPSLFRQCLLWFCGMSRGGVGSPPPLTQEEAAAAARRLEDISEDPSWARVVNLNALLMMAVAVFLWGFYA
Method in brief: as §1

Row | Compound | inhibition at 0.3 µM (human SGLT1) [%] | IC50 (human SGLT1) [nM] | 24-hr Blood Glucose AUC vs Vehicle (%) (db/db mice) | Urine Glucose Excretion (g/24 hr) (db/db mice) | inhibition at 0.3 µM (human SGLT2) [%] | IC50 (human SGLT2) [nM]
1 | COc1cc(O)c([C@@H]2O[C@H](CO)C(F)(F)[C@H](O)[C@H]2O)cc1Cc1ccc2c(c1)CCCO2 [Compound 44, (2S,3R,4R,6R)-2-(5-(chroman-6-ylmethyl)-2-hydroxy-4-methoxyphenyl)-5,5-difluoro-6-(hydroxymethyl)tetrahydro-2H-pyran-3,4-diol] | 56.2 | 96 | 48.4 ± 3.4 | 0.55 ± 0.12 | 90.1 | 1.3
2 | COc1ccc(Cc2cc([C@@H]3O[C@H](CO)C(F)(F)[C@H](O)[C@H]3O)c(O)cc2Cl)cc1 [Compound 81, (2S,3R,4R,6R)-2-(4-chloro-2-hydroxy-5-(4-methoxybenzyl)phenyl)-5,5-difluoro-6-(hydroxymethyl)-tetrahydro-2H-pyran-3,4-diol] | 76.6 | 34 | 55.0 ± 4.6 |  | 87.4 | 1.1
